Results: article PMC12040169 (PLOS Biology, 2025)

Experiment: in vitro
Conditions: human, hela cells, % viability

| SMILES | viability at 28.5 h, 10 µM |
| --- | --- |
| CC[C@@H](Cn1nc2c(cc1=O)CCCCC2)NC(=O)c1ccco1 [CBK284553] | 78.2% |
| O=C(C[S+]([O-])c1nc2ccccc2[nH]1)N1CCOCC1 (stereo not drawn) [CBK016397] | 98.1% |
| COCCNC(=O)c1cnn2c(C)c(Cc3cccc(C#N)c3)c(C)nc12 [CBK162096] | 94.6% |
| Cc1ncc([N+](=O)[O-])n1CC(=O)NC1CCCCCC1 [CBK269194] | 97.4% |
| CN(CC(F)(F)F)C(=O)CCc1nc(-c2cccs2)no1 [CBK282215] | 89.8% |
| COc1ccc(CCN(C)Cc2ccccn2)cc1OC [CBK261912] | 88.8% |
| Cn1cc(CN2CCN(CC3(c4ccccc4)CC3)CC2)cn1 [CBK282794] | 109% |
| CCNC(=O)N1CC2(CCN(CCSC)CC2)c2ccccc21 [CBK126709] | 101% |
| Cc1cc2c(s1)c1cnn(CC(=O)NC3CCCC3)c(=O)c1n2C [CBK284189] | 84.2% |
| O=C(Nc1ccsc1C(=O)O)c1ccc(Cl)cc1 [CBK076902] | 96.8% |
| S=c1nccc(N2CCC(Cc3ccccc3)CC2)[nH]1 [CBK288361] | 112% |
| COc1ccc(-c2cc(C(=O)OCc3ccccn3)c3ccccc3n2)cc1 [CBK296114] | 108% |
| Cn1nccc1NS(=O)(=O)c1cc(C(=O)O)c(Cl)cc1F [CBK062712] | 106% |
| CN1CCC(NC(=O)c2cccc(NC(=O)C3CCCCC3)c2)C1=O (stereo not drawn) [CBK306228] | 81.3% |
| O=C(CN1CCN(c2ccccc2)CC1)Nc1ccc(Cl)cc1C(=O)c1ccccc1 [CBK265827] | 107% |
| CC(C)(CO)Cn1c(=O)[nH]c2ncc(-c3ccc(C(N)=O)cc3)nc21 [CBK064787] | 88.5% |
| CNC(=O)C1(C)CCCN1C(=O)c1cc2cc(C)ccc2n1C (stereo not drawn) [CBK281375] | 86.1% |
| CNS(=O)(=O)c1cccc(C(C)NC(=O)N2CCSCC2)c1 (stereo not drawn) [CBK305825] | 95.1% |
| O=C(O)COc1ccc(S(=O)(=O)N2CCc3ccccc32)cc1 [CBK269882] | 102% |
| O=C1CCCN1CCOc1nccnc1-c1ccccc1Cl [CBK106999] | 100% |
| CN(C)c1ccc(NC(=O)CC2S/C(=N/c3ccccc3)N(c3ccccc3)C2=O)cc1 (stereo not drawn) [CBK265644] | 92.7% |
| Cc1ccccc1Cn1c(=O)sc2ccccc21 [CBK025408] | 94.9% |

| SMILES | viability at 28.5 h, 10 µM |
| --- | --- |
| CCc1c(C)nc2n(c1=O)C(CS(=O)(=O)c1ccccc1)CS2 (stereo not drawn) [CBK268949] | 94.7% |
| Cc1cc(SCC(=O)Nc2cccc3ccccc23)nc2c(C)cccc12 [CBK268005] | 92.2% |
| Nc1ncc(-c2ccncc2)nc1-c1cccc2c1oc1ccccc12 [CBK063889] | 102% |
| CCN(CC)CCn1c(=N)n(CC(=O)OC)c2ccccc21 [CBK262517B] | 87.3% |
| CN(Cc1nnc(-c2ccc(C(C)(C)C)cc2)o1)C(=O)C1CCCO1 (stereo not drawn) [CBK307597] | 106% |
| COc1cccc(CNC(=O)CCc2nc3ccccc3[nH]2)c1 [CBK288003] | 115% |
| CC(C)(C)c1cc(NC(=O)C(C)(C)S(=O)(=O)c2ccc(C(F)(F)F)cn2)no1 [CBK006849] | 113% |
| CC1CCN(CC(O)c2ccc3c(c2)CCCN3C(=O)C2CC2)CC1 (stereo not drawn) [CBK282488] | 96.9% |
| CCOc1ccc(S(=O)(=O)N2CCN(Cc3cc(F)c(F)c(F)c3)CC2)c2cccnc12 [CBK062795] | 95.4% |
| COc1ccc(OC)c(C(=O)c2coc3ccc(OCC(=O)O)cc23)c1 [CBK111288] | 91.8% |
| Cn1nc(-c2ccc(F)cc2)cc1[C@H]1CN2CC[C@H]1C[C@@H]2CNS(C)(=O)=O [CBK289109] | 98.8% |
| CCOc1cc2c(cc1CN1CCN(Cc3noc(C)n3)CC1)CCC2 [CBK307138] | 83.1% |
| Cc1nc2c(c(=O)[nH]1)CN(Cc1cn(C(C)C)c3ccccc13)CC2 [CBK284014] | 93.5% |
| O=C(Nc1ccc(I)cc1C(=O)NCCN1CCOCC1)c1ccccc1Cl [CBK266245] | 101% |
| Cn1c(=O)c2c(nc(NCCOCCO)n2C)n(C)c1=O [CBK288164] | 98.2% |
| CCCCCC1=NN(C(=O)c2ccccc2Br)C(O)(C(F)(F)F)C1 (stereo not drawn) [CBK027223] | 104% |
| C1=C(CN2CCn3nc(CNc4cnccn4)cc3C2)CCCC1 [CBK307406] | 86.1% |
| CCC(CO)Nc1cncc(-c2cccc(C(F)(F)F)c2)n1 (stereo not drawn) [CBK065783] | 99.4% |
| Cn1nccc1C(O)c1cc2n(n1)CCCN(C(=O)Cc1cccs1)C2 (stereo not drawn) [CBK306930] | 104% |
| O=c1[nH]c(=O)c2cc(S(=O)(=O)N3CCCC(c4ccccc4)C3)ccc2[nH]1 (stereo not drawn) [CBK286381] | 106% |
| CCc1ccc(-c2cc3c(=O)[nH]nc(S)n3n2)cc1 [CBK288485] | 124% |
| O=C(N/N=C/c1cc2c(cc1Br)OCO2)c1ccc(CN2CCOCC2)cc1 [CBK262721] | 90.1% |

| SMILES | viability at 28.5 h, 10 µM |
| --- | --- |
| Cc1cc2c(N3CCN(Cc4nc5ccccc5[nH]4)CC3)ncnc2s1 [CBK268213C] | 101% |
| Cc1[nH]c2ccccc2c1Cc1n[nH]c(=S)n1Cc1ccccc1 [CBK266985] | 99.5% |
| Cc1nn(C)cc1C(=O)N1CCCCC1c1nc2ccccc2[nH]1 (stereo not drawn) [CBK283779] | 84.7% |
| CSc1nccc(N2CCC(NCCCn3ccnn3)CC2)n1 [CBK307076] | 92.7% |
| Cc1ccccc1C1(O)CCN(CC(O)c2ccc3c(c2)CCC3)CC1 (stereo not drawn) [CBK286329] | 88% |
| O=C(O)c1ccc(CNCCc2c[nH]c3ccccc23)cc1 [CBK287265] | 87.6% |
| N#Cc1ccsc1NC(=O)CN1CCN(c2cccc(Cl)c2)CC1 [CBK306192] | 81.1% |
| Cc1ccc(S(=O)(=O)Nc2nc(C)c(NC(=O)Nc3ccc(Cl)cc3Cl)s2)cc1 [CBK264982] | 85.8% |
| CC1CCCN(c2ccc(NC(=O)c3cccs3)cc2[N+](=O)[O-])C1 (stereo not drawn) [CBK266402] | 102% |
| O=C(Nc1ccccc1C(=O)N1CCCC1)c1cc(=O)[nH]c2ccccc12 [CBK295664] | 99.2% |
| CN1CCN(C(=O)c2[nH]c3ccccc3c2NS(=O)(=O)c2cc(F)c(Br)cc2F)CC1 [CBK050051] | 90.5% |
| CN(C)c1ccc(CCNC(=O)c2c3c(nn2C)CCCC3)cc1 [CBK281824] | 96.4% |
| CC(C)C(=O)N1CCCC(n2nc(-c3cccs3)ccc2=O)C1 (stereo not drawn) [CBK284038] | 92.3% |
| CS(=O)(=O)Nc1cccc(-c2cnc3[nH]c(=O)n(Cc4cccs4)c3n2)c1 [CBK064708] | 91% |
| COc1cc(-c2cnc(N)c(NCc3ccncc3)n2)cc(OC)c1OC [CBK063646] | 94.8% |
| Cc1ccc(C(=O)C2=C(O)C(=O)N(CCCn3ccnc3)C2c2ccncc2)cc1 (stereo not drawn) [CBK264476] | 106% |
| O=C(O)[C@@H]1CSC(c2ccc3c(c2)OCO3)N1 (stereo partly drawn) [CBK287214] | 89.8% |
| CNCc1cc(Br)ccc1OC [CBK027857] | 113% |
| O=C(O)c1cccc(-c2ccc(/C=N/Nc3ccc([N+](=O)[O-])cn3)o2)c1 [CBK263196] | 89.9% |
| Cn1c(=O)c2c(nc(CN3CCN(c4ccccc4)CC3)n2Cc2ccccc2)n(C)c1=O [CBK269557] | 85.1% |
| Cc1ccc(C(=O)NCc2ccc(-c3n[nH]cc3C(=O)N(C)c3ccccc3)cc2)cc1 [CBK285600] | 98.7% |
| Cc1ccc(S(=O)(=O)N(CC(=O)O)c2ccc(C(C)C)cc2)cc1 [CBK287116] | 85.3% |

| SMILES | viability at 28.5 h, 10 µM |
| --- | --- |
| COCCNC(=O)c1ccc(-c2cc(C(C)C)ccc2OC)nc1NCC1CC1 [CBK106256] | 94.1% |
| COc1ccc(C(c2ccccn2)N(C)C(=O)C2CCN(S(=O)(=O)C(C)C)CC2)cc1 (stereo not drawn) [CBK060280] | 88.2% |
| O=[N+]([O-])c1cc(S(=O)(=O)Nc2ccc(C(O)(C(F)(F)F)C(F)(F)F)cc2)ccc1Cl [CBK062106] | 92.9% |
| CCC(C)C(NC(=O)c1ccccc1NC(=O)c1ccc(OC)cc1)C(=O)O (stereo not drawn) [CBK296090] | 91.4% |
| COc1cc(OC)c(NC(=O)N2CCC(n3c(=O)[nH]c4ccccc43)CC2)cc1Cl [CBK149851] | 91.4% |
| C[C@@H](c1ccccc1)n1c(=O)[nH]c2ncc(-c3cccc4ccccc34)nc21 [CBK064710] | 97% |
| CNS(=O)(=O)c1ccc2c3c(cccc13)C(=O)N2 [CBK287275] | 89.7% |
| Cc1ccc(NC(=S)N(CCN(C)C)Cc2cc3ccc(C)cc3[nH]c2=O)c(C)c1 [CBK135134] | 92.4% |
| Cc1cccc(NS(=O)(=O)c2ccc(OCC(=O)Nc3ccc4c(c3)OCCO4)cc2)c1 [CBK268068] | 111% |
| CC(C)OCC(O)Cn1c(NC2CCCCC2)nc2c1c(=O)[nH]c(=O)n2C (stereo not drawn) [CBK140893] | 107% |
| COc1nccnc1OC1CCN(Cc2ccc(Cl)cc2)CC1 [CBK084240] | 98.7% |
| CC(C)NC(=O)[C@@H]1CN(C)C[C@]12CCc1ccccc1C2=O [CBK284764] | 93.8% |
| CCN(CC(=O)Nc1ccc(OC)c(Cl)c1)S(=O)(=O)c1ccc2ccccc2c1 [CBK267910] | 92.9% |
| O=C(O)c1cc(S(=O)(=O)Nc2ccccc2C(=O)O)ccc1Br [CBK262371] | 98.8% |
| O=C(O)/C=C\C(=O)N(C1CCCCC1)C1CCCCC1 [CBK286562] | 92% |
| Cc1ccc(Br)cc1S(=O)(=O)N1CCN(C(c2ccccc2)c2ccccc2)CC1 [CBK263433] | 95.3% |
| CCSc1nnc(Cc2cc(=O)[nH]c(=O)[nH]2)n1-c1ccc(F)cc1 [CBK287500] | 85.2% |
| CCc1nc2ccc(C(=O)N3CCCC(C(N)=O)C3)cn2c1N(CC)CCN(C)C (stereo not drawn) [CBK146185] | 98.8% |
| O=C(NCCc1cccs1)C(c1ccccc1)c1ccccc1 [CBK270275] | 90.1% |
| COc1cc(NC(=O)C(C)Oc2cccc(Cl)c2)c(C(=O)O)cc1OC (stereo not drawn) [CBK268470] | 92.4% |

Same assay, conditions: human, hela cells, % viability, bulk resorufin, single well

| SMILES | viability at 28.5 h, 10 µM |
| --- | --- |
| CC(=O)N1CCC2(CC1)OCc1cc(-c3cccc4cccnc34)ccc1O2 [CBK060969] | 88.4% |
